The test system of this assay is P388 leukemia ip, CD2F1 mice, survival T/C. As to the kind of experiment: NCI In Vivo Anticancer Drug Screen. Data for tumor model P388 Leukemia (intraperitoneal) in CD2F1 (CDF1) mice. To be noted: endpoint: median survival time, higher = longer survival. The method, boiled down:
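Mice carrying the transplanted tumor received test compound or vehicle. Survival was recorded in each group, and the value is the treated-group measurement divided by that of the vehicle-treated control group.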

Where [1] appears, read: dose: 50.0 mg/kg/injection, schedule: Q01DX005 (ip), vehicle: Klucel (hydroxypropylcellulose) (HPC).
[2] abbreviates: dose: 60.0 mg/kg/injection, schedule: Q01DX005 (ip), vehicle: saline with Tween-80.
Setting [3] is: dose: 120.0 mg/kg/injection, schedule: Q01DX005 (ip), vehicle: saline with Tween-80.
Where [4] appears, read: dose: 240.0 mg/kg/injection, schedule: Q01DX005 (ip), vehicle: saline with Tween-80.
The mark [5] stands for this setting: dose: 100.0 mg/kg/injection, schedule: Q04DX003 (ip), vehicle: saline with Tween-80.
[6] abbreviates: dose: 200.0 mg/kg/injection, schedule: Q04DX003 (ip), vehicle: saline with Tween-80.
Where [7] appears, read: dose: 400.0 mg/kg/injection, schedule: Q04DX003 (ip), vehicle: saline with Tween-80.
The mark [8] stands for this setting: dose: 100.0 mg/kg/injection, schedule: Q01DX005 (ip), vehicle: saline with Tween-80.
Setting [9] is: dose: 12.5 mg/kg/injection, schedule: Q04DX003 (ip), vehicle: saline with Tween-80.
Setting [10] is: dose: 25.0 mg/kg/injection, schedule: Q04DX003 (ip), vehicle: saline with Tween-80.
[11] abbreviates: dose: 50.0 mg/kg/injection, schedule: Q01DX009 (ip), vehicle: Klucel (hydroxypropylcellulose) (HPC).
The mark [12] stands for this setting: dose: 100.0 mg/kg/injection, schedule: Q01DX009 (ip), vehicle: Klucel (hydroxypropylcellulose) (HPC).
The mark [13] stands for this setting: dose: 200.0 mg/kg/injection, schedule: Q01DX009 (ip), vehicle: Klucel (hydroxypropylcellulose) (HPC).

Several values for one entry are separate records, joined by “and”; a condition that tells them apart may be missing. Equal entries are not always repeated. Inconclusive results and toxic doses are left out.

As for `CCOc1cc2c(cc1C(C)c1ccc(OCc3ccccc3)cc1)OCO2` (centres undefined), the T/C runs as follows: under setting [1], 88 % of control; (dose: 100.0 mg/kg/injection, schedule: Q01DX005 (ip), vehicle: Klucel (hydroxypropylcellulose) (HPC)) 96 % of control; (dose: 200.0 mg/kg/injection, schedule: Q01DX005 (ip), vehicle: Klucel (hydroxypropylcellulose) (HPC)) 91 % of control.

Turning to `CCN(CC)c1ccc2cc(-n3nnc4ccccc43)c(=O)oc2c1`, the T/C is, setting by setting: under setting [2], 96 % of control; under setting [3], 96 % of control; under setting [4], 99 % of control.

Consider `CCOC(OCC)c1ccc([N+](=O)[O-])cc1`, for which the T/C is, setting by setting: under setting [5], 106 % of control; under setting [6], 100 % of control; under setting [7], 117 % of control.

`Clc1nc2nc(C3CC3)[nH]c2nc1Cl`: the T/C is 100 % of control under setting [5], 100 % of control under setting [6] and 100 % of control under setting [7].

Turning to `c1ccc(Nc2nnnn2-c2ccccc2)cc1`, the T/C by setting is: (dose: 25.0 mg/kg/injection, schedule: Q01DX005 (ip), vehicle: saline with Tween-80) 100 % of control; (dose: 50.0 mg/kg/injection, schedule: Q01DX005 (ip), vehicle: saline with Tween-80) 100 % of control; under setting [8], 104 % of control.

Take `BrC1/C=C\CC(Br)/C=C\C1` (centres undefined): the T/C was 110 % of control (dose: 50.0 mg/kg/injection, schedule: Q01DX009 (ip), vehicle: saline with Tween-80); 117 % of control (dose: 100.0 mg/kg/injection, schedule: Q01DX009 (ip), vehicle: saline with Tween-80); 115 % of control (dose: 200.0 mg/kg/injection, schedule: Q01DX009 (ip), vehicle: saline with Tween-80).

`CCN(CC)CCOC12CC3CC(CC(C3)C1)C2`: the T/C reads like this: (dose: 12.5 mg/kg/injection, schedule: Q01DX005 (ip), vehicle: Klucel (hydroxypropylcellulose) (HPC)) 104 % of control; (dose: 25.0 mg/kg/injection, schedule: Q01DX005 (ip), vehicle: Klucel (hydroxypropylcellulose) (HPC)) 101 % of control; under setting [1], 100 % of control and 104 % of control.

Consider `Nc1ncnc2nc(-c3ccc(C[P+](c4ccccc4)(c4ccccc4)c4ccccc4)cc3)[nH]c12`, for which the T/C under setting [2] is 95 % of control, the T/C under setting [3] is 95 % of control and the T/C under setting [4] was 95 % of control.

On to `C(=C1\Oc2ccccc2N=C1OCCN1CCOCC1)/c1ccccc1`, for which the T/C reads like this: (dose: 100.0 mg/kg/injection, schedule: Q04DX003 (ip), vehicle: Klucel (hydroxypropylcellulose) (HPC)) 97 % of control; (dose: 200.0 mg/kg/injection, schedule: Q04DX003 (ip), vehicle: Klucel (hydroxypropylcellulose) (HPC)) 99 % of control; (dose: 400.0 mg/kg/injection, schedule: Q04DX003 (ip), vehicle: Klucel (hydroxypropylcellulose) (HPC)) 98 % of control.

For `O=S1(=O)C=C(c2ccccc2)C(c2ccccc2)=C1`, the T/C reads like this: under setting [9], 100 % of control; under setting [10], 100 % of control; (dose: 50.0 mg/kg/injection, schedule: Q04DX003 (ip), vehicle: saline with Tween-80) 109 % of control.

Regarding `COc1cccc2c(NCCCNCCCNc3c4ccccc4nc4c(OC)cccc34)c3ccccc3nc12`, the T/C reads like this: (dose: 5.0 mg/kg/injection, schedule: Q01DX009 (ip), vehicle: other) 153 % of control; (dose: 10.0 mg/kg/injection, schedule: Q01DX009 (ip), vehicle: other) 157 % of control.

For `Nc1ncc2c(n1)-c1ccccc1OC2`, the T/C is, setting by setting: under setting [2], 92 % of control; under setting [3], 103 % of control; under setting [4], 95 % of control.

Regarding `O=C1NC(=O)C2C3C=CC(C12)C1C2C(=O)NC(=O)C2C31` (centres undefined), the T/C (dose: 12.5 mg/kg/injection, schedule: Q01DX009 (ip), vehicle: distilled water + Tween-80) is 116 % of control; the T/C (dose: 25.0 mg/kg/injection, schedule: Q01DX009 (ip), vehicle: distilled water + Tween-80) was 153 % of control; the T/C (dose: 30.0 mg/kg/injection, schedule: Q01DX009 (ip), vehicle: water) was 163 % of control; the T/C (dose: 50.0 mg/kg/injection, schedule: Q01DX009 (ip), vehicle: distilled water + Tween-80) is 193 % of control; the T/C (dose: 100.0 mg/kg/injection, schedule: Q01DX001 (ip), vehicle: saline with Tween-80) is 96 % of control; the T/C (dose: 200.0 mg/kg/injection, schedule: Q01DX001 (ip), vehicle: saline with Tween-80) is 109 % of control. Also, the T/C (dose: 400.0 mg/kg/injection, schedule: Q01DX001 (ip), vehicle: saline with Tween-80) is 119 % of control.

Take `O=C(O)[C@@H]1[C@H]2C[C@H]3c4[nH]c5ccccc5c4CCN3C[C@@H]2CC[C@@H]1O`: the T/C is 87 % of control (dose: 25.0 mg/kg/injection, schedule: Q01DX009 (ip), vehicle: Klucel (hydroxypropylcellulose) (HPC)); 88 % of control under setting [11]; 100 % of control under setting [12]; 101 % of control under setting [13].

Regarding `COc1ccc(N=NNc2ccc(OC)cc2)cc1`, the T/C reads like this: (dose: 6.25 mg/kg/injection, schedule: Q01DX009 (ip), vehicle: saline with Tween-80) 104 % of control; (dose: 6.25 mg/kg/injection, schedule: Q04DX003 (ip), vehicle: saline with Tween-80) 95 % of control; (dose: 12.5 mg/kg/injection, schedule: Q01DX009 (ip), vehicle: saline with Tween-80) 104 % of control; under setting [9], 108 % of control; under setting [10], 116 % of control.

Regarding `CC1(C)Cc2oc(=O)n(-c3ccccc3)c(=O)c2C1`, the T/C was 100 % of control under setting [11], 102 % of control under setting [12] and 100 % of control under setting [13].

Consider `CC1=NS(=O)(=O)NC(C)=C1CC1=C(C)NS(=O)(=O)N=C1C`, for which the T/C is 99 % of control under setting [2], 107 % of control under setting [3] and 106 % of control under setting [4].

Consider `O=C(Nc1ccccc1)c1c(O)[nH]c(=O)[nH]c1=O`, for which the T/C by setting is: under setting [8], 163 % of control and 207 % of control; (dose: 200.0 mg/kg/injection, schedule: Q01DX005 (ip), vehicle: saline with Tween-80) 204 % of control.
